Data as given in ChEMBL document CHEMBL1201862, “PubChem BioAssay data set” (2004).
“And” between values parts separate entries of the source, which are not always exact repeats. Equal entries are not always repeated. The source made the active and inactive calls.

System: not listed separately
Assay: NIH-3T3 fibroblast cytotoxicity, dose response, cytotoxicity control, cell-based, fluorescence, Alamar Blue, secondary assay (AID 2327);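 note: NIH-3T3 mouse fibroblasts cultured with fluconazole at 8 µg/mL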
Assay type: functional
Conditions: not given

Row | Structure (SMILES) | EC50
1 | CCC1=NN(C(=O)c2ccccc2O)C(O)(c2ccccc2)C1 (configuration not stated) | > 160 µM (inactive)

Target: Cytochrome P450 2C19 (Homo sapiens, UniProt P33261)
Assay: Cytochrome panel assay with activity outcomes. Panel member name: p450-cyp2c19 Compounds with AC50 equal or less than 10 uM are considered active
Assay type: functional
Conditions: read-out: AC50

Chain of Cytochrome P450 2C19 (P33261 whole entry): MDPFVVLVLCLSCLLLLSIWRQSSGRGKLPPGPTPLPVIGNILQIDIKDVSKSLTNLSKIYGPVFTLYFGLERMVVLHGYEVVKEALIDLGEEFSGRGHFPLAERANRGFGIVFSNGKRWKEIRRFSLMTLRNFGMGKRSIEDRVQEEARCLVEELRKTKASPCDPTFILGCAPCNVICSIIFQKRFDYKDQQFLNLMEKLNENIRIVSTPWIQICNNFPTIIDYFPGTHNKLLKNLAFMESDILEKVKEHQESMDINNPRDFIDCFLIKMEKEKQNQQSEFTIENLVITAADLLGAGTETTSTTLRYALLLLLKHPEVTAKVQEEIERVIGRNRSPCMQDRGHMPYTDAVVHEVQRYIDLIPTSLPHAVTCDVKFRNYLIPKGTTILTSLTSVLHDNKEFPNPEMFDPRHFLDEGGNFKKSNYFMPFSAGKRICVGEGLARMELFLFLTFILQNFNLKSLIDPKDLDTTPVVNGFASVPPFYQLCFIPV

Row | Structure (SMILES) | AC50
2 | c1cnc2ccc(C(c3nnnn3C3CCCC3)N3CCN4CCCC4C3)cc2c1 (configuration not stated) | 25.1 µM (inconclusive)
3 | CCOc1nnc(C)c2c(C)n(-c3ccc(Cl)cc3)nc12 | 31.6 µM (inconclusive)
4 | Cc1c(/N=C/c2ccco2)n(Cc2ccccc2)c2ccccc12 | 2.82 µM (inconclusive)

System: not listed separately
Assay: C. albicans growth with fluconazole, confirmation, fluorescence, retest (AID 2467)
Assay type: functional, cell-based
Conditions: not given

Row | Structure (SMILES) | EC50
5 | CCC1=NN(C(=O)c2ccccc2O)C(O)(c2ccccc2)C1 (configuration not stated) | 0.788 µM (active)

System: Streptococcus sp. 'group A'
Assay: growth inhibition of control SK(-) GAS strain, dose response, counter-screen for streptokinase expression inhibitor project, luminescence, kanamycin, BacTiterGlo, confirmation (AID 1900)
Assay type: functional, organism-based
Conditions: not given

Row | Structure (SMILES) | EC50
6 | CCC1=NN(C(=O)c2ccccc2O)C(O)(c2ccccc2)C1 (configuration not stated) | 2.58 µM (active)

Target: Cytochrome P450 2D6 (Homo sapiens, UniProt P10635);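 note: CYP2D6 member of a cytochrome P450 panel assay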
Conditions: not given

Chain of Cytochrome P450 2D6 (P10635 whole entry): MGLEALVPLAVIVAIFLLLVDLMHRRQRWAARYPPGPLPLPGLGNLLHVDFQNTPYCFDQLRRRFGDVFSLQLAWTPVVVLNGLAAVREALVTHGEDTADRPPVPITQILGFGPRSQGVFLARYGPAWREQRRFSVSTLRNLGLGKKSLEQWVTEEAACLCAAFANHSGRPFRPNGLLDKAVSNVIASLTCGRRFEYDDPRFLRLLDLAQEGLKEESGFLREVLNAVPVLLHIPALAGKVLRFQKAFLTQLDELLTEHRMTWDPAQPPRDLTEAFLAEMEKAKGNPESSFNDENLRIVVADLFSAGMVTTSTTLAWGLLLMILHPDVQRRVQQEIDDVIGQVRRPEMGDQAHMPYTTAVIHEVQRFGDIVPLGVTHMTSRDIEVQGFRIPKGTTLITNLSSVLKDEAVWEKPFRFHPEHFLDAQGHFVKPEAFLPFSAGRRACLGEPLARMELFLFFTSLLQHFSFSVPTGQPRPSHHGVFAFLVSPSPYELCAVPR

Row | Structure (SMILES) | AC50
7 | COCCNC(=O)[C@H](C)[C@H]1C[C@]1(C)[C@H](NC(=O)OCc1ccccc1)c1ccccc1 | 20 µM (inconclusive)
8 | C[C@H](NCCc1ccc(O)cc1)[C@@H](O)c1ccc(O)cc1 | 15.8 µM (inconclusive) and 12.6 µM (inconclusive)
9 | C[As+](C)(c1ccc(Br)c([N+](=O)[O-])c1)c1ccc(Br)c([N+](=O)[O-])c1 | 1.58 µM (inconclusive)
10 | COc1cccc(CNc2ccc3nc(-c4ccc(N)cc4)c(OC)n3n2)c1 | 10 µM (inconclusive)
11 | C/N=C1\N[C@H](c2ccccc2)N(c2ccccc2)S1 | 25.1 µM (inconclusive)
12 | COc1ccc(N(CC(=O)Nc2cccc(C)c2)S(=O)(=O)c2c(C)n[nH]c2C)cc1 | 20 µM (inconclusive)
13 | COc1ccc(-n2c(=O)c(-c3ccc(Cl)cc3)nc3cnc(N(C)C)nc32)cc1 | 2.51 µM (inconclusive)
14 | CCC(C)[C@H](NC(=O)NC1CCN(Cc2ccccc2)CC1)C(=O)OC (some centres not stated) | 28.2 µM (inconclusive)
15 | c1cnc2ccc(C(c3nnnn3C3CCCC3)N3CCN4CCCC4C3)cc2c1 (configuration not stated) | 22.4 µM (inconclusive)
16 | CCS(=O)(=O)N1CCC(C(=O)NCCN2CCN(Cc3ccccc3)CC2)CC1 | 14.1 µM (inconclusive)
17 | Cc1ccc(C)c(/C(=N\N=C(N)N)C2CC2)c1 | 3.98 µM (inconclusive)
18 | CS(=O)(=O)Nc1cccc(-c2nc(Nc3ccc(F)cc3)c3ccccc3n2)c1 | 39.8 µM (inconclusive)
19 | C#C[C@@]1(O)CC[C@@H]2[C@@H]3CCC4=C(CCC(=O)C4)[C@H]3CC[C@]21C | 15.8 µM (inconclusive)
20 | Cc1cnc(CNc2ncnc3ccc(-c4ccoc4)cc23)cn1 | 39.8 µM (inconclusive)
21 | CNc1nc(-c2ccccc2C)nc2ccccc12 | 31.6 µM (inconclusive)
22 | CC(C)c1ccccc1-n1c(SCC(=O)N2CCN(c3ccccc3)CC2)nnc1-c1cccnc1 | 15.8 µM (inconclusive)
23 | O=C(CCC(=O)c1cccs1)OCC(=O)N1CCN(C(=O)c2ccco2)CC1 | 39.8 µM (inconclusive)
24 | c1ccc(-c2ccc(N3CCCC4(CCNCC4)C3)cc2)cc1 | 20 µM (inconclusive)
25 | CCOc1nnc(C)c2c(C)n(-c3ccc(Cl)cc3)nc12 | 25.1 µM (inconclusive)
26 | CC(C)Cn1cnc2c(SCc3ccc(Cl)cc3Cl)nc(N)nc21 | 7.94 µM (inconclusive)
27 | C=CCn1cc(Cl)c(=O)n(CC=C)c1=O | 0.562 µM (inconclusive)
28 | CCNC(=O)O/N=C(\C)c1sc(-c2ccccc2)nc1C | 20 µM (inconclusive)
29 | Cc1c(/N=C/c2ccco2)n(Cc2ccccc2)c2ccccc12 | 4.47 µM (inconclusive)

Target: T1, Streptokinase A (Streptococcus pyogenes serotype M1, UniProt P10520)
T1 sequence (P10520 whole entry): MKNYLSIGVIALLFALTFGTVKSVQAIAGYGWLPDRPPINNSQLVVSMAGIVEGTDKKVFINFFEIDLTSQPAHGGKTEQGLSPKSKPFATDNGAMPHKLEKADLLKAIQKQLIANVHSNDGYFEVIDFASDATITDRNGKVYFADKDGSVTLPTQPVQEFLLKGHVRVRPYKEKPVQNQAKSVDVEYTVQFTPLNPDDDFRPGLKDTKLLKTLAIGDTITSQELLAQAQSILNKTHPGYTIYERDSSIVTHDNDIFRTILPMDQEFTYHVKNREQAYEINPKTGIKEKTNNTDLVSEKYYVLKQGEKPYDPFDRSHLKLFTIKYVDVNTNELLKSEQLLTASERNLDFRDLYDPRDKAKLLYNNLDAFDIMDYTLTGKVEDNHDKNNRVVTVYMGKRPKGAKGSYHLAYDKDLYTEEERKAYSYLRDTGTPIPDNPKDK
Assay: S. pyogenes streptokinase expression inhibitors, potency, dose response, plasminogen activation absorbance, OD405 (AID 1914);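 note: secreted streptokinase activity via plasminogen activation per viability signal from cell pellet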
Assay type: functional, Streptococcus pyogenes M1 GAS
Conditions: not given

Row | Structure (SMILES) | EC50
30 | CCC1=NN(C(=O)c2ccccc2O)C(O)(c2ccccc2)C1 (configuration not stated) | > 150 µM (not active)

Target: T2, Protein RecA (Mycobacterium tuberculosis, UniProt P9WHJ3)
T2 sequence (P9WHJ3 whole entry): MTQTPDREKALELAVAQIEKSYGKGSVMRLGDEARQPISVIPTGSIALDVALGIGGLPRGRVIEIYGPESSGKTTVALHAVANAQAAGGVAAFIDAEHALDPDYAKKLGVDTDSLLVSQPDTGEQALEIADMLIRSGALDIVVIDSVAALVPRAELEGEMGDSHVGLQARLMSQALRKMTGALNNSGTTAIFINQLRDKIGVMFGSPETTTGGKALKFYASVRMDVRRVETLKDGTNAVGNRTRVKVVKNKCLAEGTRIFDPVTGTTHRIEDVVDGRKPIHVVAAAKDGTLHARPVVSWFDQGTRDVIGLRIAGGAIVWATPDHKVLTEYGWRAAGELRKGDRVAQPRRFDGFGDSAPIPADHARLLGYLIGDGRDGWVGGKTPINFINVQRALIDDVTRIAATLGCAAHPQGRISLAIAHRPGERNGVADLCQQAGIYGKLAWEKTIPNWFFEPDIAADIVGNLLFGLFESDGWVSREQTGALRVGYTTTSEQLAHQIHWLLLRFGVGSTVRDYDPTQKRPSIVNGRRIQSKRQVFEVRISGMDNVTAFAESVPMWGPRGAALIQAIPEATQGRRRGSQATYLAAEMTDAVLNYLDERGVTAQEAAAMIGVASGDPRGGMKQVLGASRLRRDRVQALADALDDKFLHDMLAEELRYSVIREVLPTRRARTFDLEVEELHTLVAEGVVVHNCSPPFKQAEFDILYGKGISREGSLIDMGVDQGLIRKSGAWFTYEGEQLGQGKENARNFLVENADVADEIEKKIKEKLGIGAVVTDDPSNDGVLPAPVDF
Assay: Fluorescence Cell-Free Homogeneous Dose Retest to Identify Inhibitors of RecA-Intein Splicing Activity. [Related pubchem assays (depositor defined):AID2097, AID2223, AID489010, AID492950]
Assay type: functional
Conditions: not given

Row | Structure (SMILES) | EC50
31 | CCC(C)[C@H](NC(=O)NC1CCN(Cc2ccccc2)CC1)C(=O)OC (some centres not stated) | 2.96 µM (active)

Target: Cytochrome P450 2C9 (Homo sapiens, UniProt P11712)
Conditions: not given

Chain of Cytochrome P450 2C9 (P11712 whole entry): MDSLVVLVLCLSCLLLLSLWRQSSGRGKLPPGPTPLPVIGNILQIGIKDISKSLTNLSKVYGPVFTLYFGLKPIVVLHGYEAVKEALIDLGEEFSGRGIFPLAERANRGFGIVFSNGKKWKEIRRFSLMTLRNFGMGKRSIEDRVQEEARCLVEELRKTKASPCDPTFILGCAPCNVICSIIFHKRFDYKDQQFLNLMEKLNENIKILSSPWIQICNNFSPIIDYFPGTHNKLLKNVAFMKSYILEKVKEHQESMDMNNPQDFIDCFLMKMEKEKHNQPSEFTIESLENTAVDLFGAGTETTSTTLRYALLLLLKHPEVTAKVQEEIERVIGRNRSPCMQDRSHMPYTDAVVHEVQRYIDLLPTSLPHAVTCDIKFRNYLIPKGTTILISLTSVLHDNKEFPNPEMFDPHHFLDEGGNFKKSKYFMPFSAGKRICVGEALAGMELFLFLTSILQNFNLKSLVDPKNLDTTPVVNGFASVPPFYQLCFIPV

Row | Structure (SMILES) | AC50
32 | COCCNC(=O)[C@H](C)[C@H]1C[C@]1(C)[C@H](NC(=O)OCc1ccccc1)c1ccccc1 | 20 µM (inconclusive)
33 | CCC(C)[C@H](NC(=O)NC1CCN(Cc2ccccc2)CC1)C(=O)OC (some centres not stated) | 2.24 µM (inconclusive)
34 | c1cnc2ccc(C(c3nnnn3C3CCCC3)N3CCN4CCCC4C3)cc2c1 (configuration not stated) | 14.1 µM (inconclusive)
35 | O=C(CCC(=O)c1cccs1)OCC(=O)N1CCN(C(=O)c2ccco2)CC1 | 11.2 µM (inconclusive)
36 | CCOc1nnc(C)c2c(C)n(-c3ccc(Cl)cc3)nc12 | 25.1 µM (inconclusive)
37 | CC(C)Cn1cnc2c(SCc3ccc(Cl)cc3Cl)nc(N)nc21 | 7.94 µM (inconclusive)

System: Streptococcus
Assay: Group A Streptococcus viability loss, dose response, counter-screen for streptokinase expression inhibitor project, luminescence, BacTiterGlo (AID 1915);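 note: potency for reduction of bacterial viability or growth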
Assay type: functional, organism-based
Conditions: not given

Row | Structure (SMILES) | EC50
38 | CCC1=NN(C(=O)c2ccccc2O)C(O)(c2ccccc2)C1 (configuration not stated) | 26.7 µM (active)

Target: T3, Cytochrome P450 1A2 (Homo sapiens, UniProt P05177);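 note: PubChem cytochrome P450 panel assay, CYP1A2 panel member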
T3 sequence (P05177 whole entry): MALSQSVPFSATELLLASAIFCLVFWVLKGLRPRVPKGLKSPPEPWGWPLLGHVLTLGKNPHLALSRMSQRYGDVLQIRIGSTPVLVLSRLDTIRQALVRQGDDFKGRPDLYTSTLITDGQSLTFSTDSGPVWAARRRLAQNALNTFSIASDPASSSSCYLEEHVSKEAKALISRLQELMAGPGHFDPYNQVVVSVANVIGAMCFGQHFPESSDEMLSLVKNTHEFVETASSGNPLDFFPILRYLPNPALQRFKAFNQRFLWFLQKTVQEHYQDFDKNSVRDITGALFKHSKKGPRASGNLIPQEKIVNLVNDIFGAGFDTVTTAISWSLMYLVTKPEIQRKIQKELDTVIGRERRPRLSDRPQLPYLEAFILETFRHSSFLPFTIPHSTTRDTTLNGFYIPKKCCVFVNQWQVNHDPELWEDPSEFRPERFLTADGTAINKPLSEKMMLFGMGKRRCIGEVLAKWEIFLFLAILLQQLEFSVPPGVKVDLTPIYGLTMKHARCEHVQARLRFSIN
Conditions: not given

Row | Structure (SMILES) | AC50
39 | COc1ccc(-n2c(=O)c(-c3ccc(Cl)cc3)nc3cnc(N(C)C)nc32)cc1 | 10 µM (inconclusive)
40 | C#C[C@@]1(O)CC[C@@H]2[C@@H]3CCC4=C(CCC(=O)C4)[C@H]3CC[C@]21C | 12.6 µM (inconclusive)
41 | CC(C)Cn1cnc2c(SCc3ccc(Cl)cc3Cl)nc(N)nc21 | 1.26 µM (inconclusive)
42 | C=CCn1cc(Cl)c(=O)n(CC=C)c1=O | 14.1 µM (inconclusive)

Target: T4, Replicative DNA helicase DnaB (Mycobacterium tuberculosis, UniProt P9WMR3)
T4 sequence (P9WMR3 whole entry): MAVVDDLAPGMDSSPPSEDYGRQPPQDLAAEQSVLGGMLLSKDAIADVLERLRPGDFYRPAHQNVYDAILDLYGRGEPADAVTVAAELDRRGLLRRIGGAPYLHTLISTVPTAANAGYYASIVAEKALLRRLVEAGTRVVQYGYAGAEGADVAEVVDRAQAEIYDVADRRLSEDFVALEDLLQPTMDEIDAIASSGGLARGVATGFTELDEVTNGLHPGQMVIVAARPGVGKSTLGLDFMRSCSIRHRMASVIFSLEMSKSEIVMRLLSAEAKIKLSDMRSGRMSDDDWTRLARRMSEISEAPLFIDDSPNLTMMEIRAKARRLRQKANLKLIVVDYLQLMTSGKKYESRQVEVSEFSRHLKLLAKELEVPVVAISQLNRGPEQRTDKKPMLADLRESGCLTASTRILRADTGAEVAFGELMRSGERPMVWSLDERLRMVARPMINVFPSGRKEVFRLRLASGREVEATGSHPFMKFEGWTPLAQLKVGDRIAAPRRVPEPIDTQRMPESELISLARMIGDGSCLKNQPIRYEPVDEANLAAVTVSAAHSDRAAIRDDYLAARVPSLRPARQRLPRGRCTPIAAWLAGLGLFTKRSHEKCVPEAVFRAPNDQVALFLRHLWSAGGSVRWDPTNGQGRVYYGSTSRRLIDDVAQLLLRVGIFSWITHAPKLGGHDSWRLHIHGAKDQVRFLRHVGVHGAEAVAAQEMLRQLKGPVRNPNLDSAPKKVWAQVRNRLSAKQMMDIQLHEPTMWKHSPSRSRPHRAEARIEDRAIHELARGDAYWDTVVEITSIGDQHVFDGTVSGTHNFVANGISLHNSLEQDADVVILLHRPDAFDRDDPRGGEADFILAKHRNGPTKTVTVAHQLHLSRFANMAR
Assay: DnaB intein splicing inhibitors, dose response, biochemical, cell-free fluorescence (AID 449749)
Assay type: functional
Conditions: not given

Row | Structure (SMILES) | AC50
43 | CCC(C)[C@H](NC(=O)NC1CCN(Cc2ccccc2)CC1)C(=O)OC (some centres not stated) | 39.9 µM (active)

System: INS1
Assay: beta cell apoptosis inhibitors, cytokine rescue, dose response, luminescence, retest (AID 449756);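 note: cell death triggered by IL-1 beta plus TNF-alpha plus IFN-gamma mixture; protective hits raise ATP signal compared with cytokine alone wells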
Assay type: functional, cell-based
Conditions: Rattus norvegicus

Row | Structure (SMILES) | AC50
44 | CCC1=NN(C(=O)c2ccccc2O)C(O)(c2ccccc2)C1 (configuration not stated) | 3.72 µM (active)

Target: Cytochrome P450 3A4 (Homo sapiens, UniProt P08684);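 note: CYP3A4 tested as one member of a cytochrome P450 panel screen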
Conditions: not given

Chain of Cytochrome P450 3A4 (P08684 whole entry): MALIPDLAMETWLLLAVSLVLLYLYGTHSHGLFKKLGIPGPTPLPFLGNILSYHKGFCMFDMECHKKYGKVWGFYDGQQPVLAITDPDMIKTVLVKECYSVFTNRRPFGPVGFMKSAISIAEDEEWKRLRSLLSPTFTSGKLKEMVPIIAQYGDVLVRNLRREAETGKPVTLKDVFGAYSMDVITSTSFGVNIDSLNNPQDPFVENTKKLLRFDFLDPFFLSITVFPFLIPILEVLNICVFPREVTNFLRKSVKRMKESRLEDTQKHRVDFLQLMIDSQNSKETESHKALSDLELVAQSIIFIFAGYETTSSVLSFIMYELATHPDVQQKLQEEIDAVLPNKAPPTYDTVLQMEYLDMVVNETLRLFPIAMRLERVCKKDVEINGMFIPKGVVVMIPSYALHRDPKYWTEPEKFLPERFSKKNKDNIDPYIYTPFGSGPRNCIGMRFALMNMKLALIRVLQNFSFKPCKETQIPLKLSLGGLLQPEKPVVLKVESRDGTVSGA

Row | Structure (SMILES) | AC50
45 | c1cnc2ccc(C(c3nnnn3C3CCCC3)N3CCN4CCCC4C3)cc2c1 (configuration not stated) | 6.31 µM (inconclusive)
46 | CNc1nc(-c2ccccc2C)nc2ccccc12 | 20 µM (inconclusive)
47 | C=CCn1cc(Cl)c(=O)n(CC=C)c1=O | 25.1 µM (inconclusive)
